Results taken from patent US9695155B2, “Herbicidal substituted pyrimidinyloxy benzene compounds” (E. I. DU PONT DE NEMOURS AND COMPANY, priority 2013, dated 2017).

Experiments:
Italian ryegrass = experiment: Test A preemergence; assay type: in vivo, Lolium multiflorum; conditions: for Plant response rating, Ryegrass, Italian: 125 g ai/ha
In short: (§1)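 Pre- and postemergence greenhouse screen. Soil: loam + sand. Spray carrier: solvent mixture, non-phytotoxic, with surfactant. Post timing at 1–2 leaves, height 2–10 cm. Readout: visual injury on a 0–100 scale roughly 10 days after application, untreated plants as reference.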

giant foxtail [1] = experiment: Test A preemergence; assay type: in vivo, Setaria faberii; conditions: for Plant response rating, Foxtail, Giant: 125 g ai/ha
In short: as §1

galium = experiment: Test C preemergence; assay type: in vivo, Galium aparine; conditions: for Galium plant response rating: preemergence; for Plant response rating, Galium: Preemergence, 31 g ai/ha, scale 0 to 100, 0 no effect, 100 complete control
In short: (§2)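 Visual ratings on a 0–100 scale (100 = complete control) were made versus untreated controls after 13–15 greenhouse days. Chemicals in a surfactant-containing non-phytotoxic solvent were applied either preemergence to seeds in loam–sand soil or postemergence to 1- to 4-leaf plants 2–18 cm tall.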

large (Lg) crabgrass = experiment: Test C preemergence; assay type: in vivo, Digitaria sanguinalis; conditions: for Crabgrass, Large plant response rating: preemergence; for Plant response rating, Crabgrass, Large: Preemergence, 31 g ai/ha, scale 0 to 100, 0 no effect, 100 complete control
In short: as §2

giant foxtail [2] = experiment: Test C preemergence; assay type: in vivo, Setaria faberii; conditions: for Foxtail, Giant plant response rating: preemergence; for Plant response rating, Foxtail, Giant: Preemergence, 31 g ai/ha, scale 0 to 100, 0 no effect, 100 complete control
In short: as §2

johnsongrass [3] = experiment: Test C preemergence; assay type: in vivo, Sorghum halepense; conditions: preemergence
In short: as §2

lambsquarters = experiment: Test C preemergence; assay type: in vivo, Chenopodium album; conditions: preemergence
In short: as §2

yellow nutsedge [4] = experiment: Test C preemergence; assay type: in vivo, Cyperus esculentus; conditions: preemergence
In short: as §2

giant foxtail [5] = experiment: Test C postemergence; assay type: in vivo, Setaria faberii; conditions: for Plant response rating (0 to 100), Foxtail, Giant: 16 g ai/ha, 0 is no effect, 100 is complete control; for Foxtail, Giant plant response rating: 31 g ai/ha, 13 to 15 days; for Foxtail, Giant plant response rating / Plant response rating, Foxtail, Giant: scale 0 to 100 (0 no effect, 100 complete control)
In short: as §2

johnsongrass [6] = experiment: Test C postemergence; assay type: in vivo, Sorghum halepense; conditions: for Plant response rating (0 to 100), Johnsongrass: 16 g ai/ha, 0 is no effect, 100 is complete control; for Johnsongrass plant response rating: 31 g ai/ha, 13 to 15 days; for Johnsongrass plant response rating / Plant response rating, Johnsongrass: scale 0 to 100 (0 no effect, 100 complete control)
In short: as §2

yellow nutsedge [7] = experiment: Test C postemergence; assay type: in vivo, Cyperus esculentus; conditions: for Plant response rating (0 to 100), Nutsedge, Yellow: 16 g ai/ha, 0 is no effect, 100 is complete control; for Nutsedge, Yellow plant response rating: 31 g ai/ha, 13 to 15 days; for Nutsedge, Yellow plant response rating / Plant response rating, Nutsedge, Yellow: scale 0 to 100 (0 no effect, 100 complete control)
In short: as §2

soybean = experiment: Test C postemergence; assay type: in vivo, Glycine max; conditions: for Plant response rating (0 to 100), Soybean: 16 g ai/ha, 0 is no effect, 100 is complete control; for Soybean plant response rating: 31 g ai/ha, 13 to 15 days; for Soybean plant response rating / Plant response rating, Soybean: scale 0 to 100 (0 no effect, 100 complete control)
In short: as §2

waterhemp = experiment: Test C postemergence; assay type: in vivo, Amaranthus rudis; conditions: for Plant response rating (0 to 100), Waterhemp: 16 g ai/ha, 0 is no effect, 100 is complete control; for Waterhemp plant response rating: 31 g ai/ha, 13 to 15 days; for Waterhemp plant response rating / Plant response rating, Waterhemp: scale 0 to 100 (0 no effect, 100 complete control)
In short: as §2

chickweed = experiment: Test C postemergence; assay type: in vivo, Stellaria media; conditions: for Plant response rating (0 to 100), Chickweed: 16 g ai/ha, 0 is no effect, 100 is complete control; for Chickweed plant response rating: 31 g ai/ha, 13 to 15 days; for Chickweed plant response rating / Plant response rating, Chickweed: scale 0 to 100 (0 no effect, 100 complete control)
In short: as §2

[8] = 0 to 100 scale where 0 is no effect and 100 is complete control
[9] = 500 g ai/ha, 0 to 100 scale where 0 is no effect and 100 is complete control
[10] = 16 g ai/ha, scale 0 to 100 (0 no effect, 100 complete control)
[11] = 62 g ai/ha, scale 0 (no effect) to 100 (complete control)
[12] = 125 g ai/ha, scale 0 (no effect) to 100 (complete control)
[13] = 125 g ai/ha, postemergence, visual rating
[14] = 1000 g ai/ha, 0 to 100 scale, 0 no effect, 100 complete control, approx. 10 days

CCCOc1cnn(-c2c(C#N)cccc2Oc2ncc(Cl)cn2)c1 [Compound 150]
80: Plant response rating, Galium (galium) | Johnsongrass plant response rating (johnsongrass [3]; [12]) | Lambsquarters plant response rating (lambsquarters; [11])
90: Galium plant response rating (galium; [11])
70: Crabgrass, Large plant response rating (large (Lg) crabgrass; [10]) | Johnsongrass plant response rating (johnsongrass [3]; [11]) | Plant response rating, Chickweed (chickweed; [13])
40: Nutsedge, Yellow plant response rating (yellow nutsedge [4]; [12])
35: Plant response rating (0 to 100), Waterhemp (waterhemp; postemergence) | Waterhemp plant response rating (waterhemp; postemergence, visual rating) | Plant response rating, Waterhemp (waterhemp; Postemergence, 62 g ai/ha)
10: Lambsquarters plant response rating (lambsquarters; [10])
0: Galium plant response rating (galium; [10]) | Johnsongrass plant response rating (johnsongrass [3]; [10]) | Nutsedge, Yellow plant response rating (yellow nutsedge [4]; [10]) | Plant response rating (0 to 100), Johnsongrass (johnsongrass [6]; postemergence) | Johnsongrass plant response rating (johnsongrass [6]; postemergence, visual rating) | Plant response rating (0 to 100), Nutsedge, Yellow (yellow nutsedge [7]; postemergence) | Nutsedge, Yellow plant response rating (yellow nutsedge [7]; postemergence, visual rating)
95: Plant response rating, Soybean (soybean; [13])
100: Plant response rating, Foxtail, Giant (giant foxtail [1]; [8]) | Foxtail, Giant plant response rating (giant foxtail [1]; [9]) | Galium plant response rating (galium; [12]) | Crabgrass, Large plant response rating (large (Lg) crabgrass; [11]) | Crabgrass, Large plant response rating (large (Lg) crabgrass; [12]) | Foxtail, Giant plant response rating (giant foxtail [2]; [11]) | Foxtail, Giant plant response rating (giant foxtail [2]; [12]) | Lambsquarters plant response rating (lambsquarters; [12])
50: Ryegrass, Italian plant response rating (Italian ryegrass; [9]) | Plant response rating (0 to 100), Chickweed (chickweed; postemergence)
65: Plant response rating (0 to 100), Soybean (soybean; postemergence) | Soybean plant response rating (soybean; postemergence, visual rating) | Plant response rating, Soybean (soybean; Postemergence, 62 g ai/ha) | Plant response rating, Waterhemp (waterhemp; [13]) | Chickweed plant response rating (chickweed; postemergence, visual rating) | Plant response rating, Chickweed (chickweed; Postemergence, 62 g ai/ha)
20: Plant response rating, Ryegrass, Italian (Italian ryegrass; [8]) | Foxtail, Giant plant response rating (giant foxtail [5]; postemergence, visual rating) | Plant response rating, Foxtail, Giant (giant foxtail [5]; Postemergence, 62 g ai/ha)
98: Plant response rating, Crabgrass, Large (large (Lg) crabgrass)
15: Plant response rating, Nutsedge, Yellow (yellow nutsedge [7]; Postemergence, 62 g ai/ha)
75: Plant response rating, Foxtail, Giant (giant foxtail [2])
25: Nutsedge, Yellow plant response rating (yellow nutsedge [4]; [11]) | Plant response rating, Foxtail, Giant (giant foxtail [5]; [13])
5: Foxtail, Giant plant response rating (giant foxtail [2]; [10]) | Plant response rating (0 to 100), Foxtail, Giant (giant foxtail [5]; postemergence) | Plant response rating, Johnsongrass (johnsongrass [6]; [13]) | Plant response rating, Johnsongrass (johnsongrass [6]; Postemergence, 62 g ai/ha) | Plant response rating, Nutsedge, Yellow (yellow nutsedge [7]; [13])

Cc1cnc(Oc2cccc(C#N)c2-n2cc(I)cn2)nc1 [Compound 136]
80: Foxtail, Giant plant response rating (giant foxtail [2]; [11]) | Lambsquarters plant response rating (lambsquarters; [11])
0: Plant response rating, Ryegrass, Italian (Italian ryegrass; [8]) | Galium plant response rating (galium; [10]) | Plant response rating, Galium (galium) | Foxtail, Giant plant response rating (giant foxtail [2]; [10]) | Johnsongrass plant response rating (johnsongrass [3]; [10]) | Nutsedge, Yellow plant response rating (yellow nutsedge [4]; [10]) | Plant response rating (0 to 100), Johnsongrass (johnsongrass [6]; postemergence) | Plant response rating, Johnsongrass (johnsongrass [6]; Postemergence, 62 g ai/ha) | Plant response rating (0 to 100), Nutsedge, Yellow (yellow nutsedge [7]; postemergence)
100: Foxtail, Giant plant response rating (giant foxtail [1]; [9]) | Crabgrass, Large plant response rating (large (Lg) crabgrass; [11]) | Crabgrass, Large plant response rating (large (Lg) crabgrass; [12]) | Plant response rating, Crabgrass, Large (large (Lg) crabgrass) | Foxtail, Giant plant response rating (giant foxtail [2]; [12]) | Lambsquarters plant response rating (lambsquarters; [12])
40: Plant response rating (0 to 100), Waterhemp (waterhemp; postemergence)
20: Johnsongrass plant response rating (johnsongrass [3]; [11])
30: Ryegrass, Italian plant response rating (Italian ryegrass; [9]) | Galium plant response rating (galium; [11]) | Plant response rating, Waterhemp (waterhemp; [13])
35: Crabgrass, Large plant response rating (large (Lg) crabgrass; [10]) | Nutsedge, Yellow plant response rating (yellow nutsedge [4]; [12]) | Plant response rating (0 to 100), Soybean (soybean; postemergence) | Plant response rating, Waterhemp (waterhemp; Postemergence, 62 g ai/ha)
10: Nutsedge, Yellow plant response rating (yellow nutsedge [4]; [11]) | Plant response rating, Foxtail, Giant (giant foxtail [5]; [13]) | Plant response rating, Nutsedge, Yellow (yellow nutsedge [7]; [13])
60: Plant response rating, Foxtail, Giant (giant foxtail [1]; [8]) | Johnsongrass plant response rating (johnsongrass [3]; [12]) | Plant response rating, Chickweed (chickweed; [13])
75: Plant response rating, Soybean (soybean; Postemergence, 62 g ai/ha)
5: Plant response rating, Foxtail, Giant (giant foxtail [2]) | Plant response rating (0 to 100), Foxtail, Giant (giant foxtail [5]; postemergence) | Plant response rating, Foxtail, Giant (giant foxtail [5]; Postemergence, 62 g ai/ha) | Plant response rating, Nutsedge, Yellow (yellow nutsedge [7]; Postemergence, 62 g ai/ha) | Plant response rating (0 to 100), Chickweed (chickweed; postemergence) | Plant response rating, Chickweed (chickweed; Postemergence, 62 g ai/ha)
90: Plant response rating, Soybean (soybean; [13])
85: Galium plant response rating (galium; [12])

FCc1cn(-c2c(F)cccc2Oc2ncc(Cl)cn2)nn1 [Compound 154]
40: Johnsongrass plant response rating (johnsongrass [3]; [11]) | Plant response rating (0 to 100), Soybean (soybean; postemergence)
80: Galium plant response rating (galium; [10])
60: Waterhemp plant response rating (waterhemp; postemergence, visual rating) | Plant response rating, Chickweed (chickweed; [13])
5: Foxtail, Giant plant response rating (giant foxtail [2]; [10]) | Nutsedge, Yellow plant response rating (yellow nutsedge [4]; [11]) | Plant response rating (0 to 100), Foxtail, Giant (giant foxtail [5]; postemergence) | Plant response rating, Foxtail, Giant (giant foxtail [5]; Postemergence, 62 g ai/ha) | Plant response rating, Johnsongrass (johnsongrass [6]; [13]) | Plant response rating (0 to 100), Nutsedge, Yellow (yellow nutsedge [7]; postemergence) | Plant response rating (0 to 100), Waterhemp (waterhemp; postemergence) | Plant response rating (0 to 100), Chickweed (chickweed; postemergence) | Chickweed plant response rating (chickweed; postemergence, visual rating)
90: Ryegrass, Italian plant response rating (Italian ryegrass; [14]) | Plant response rating, Crabgrass, Large (large (Lg) crabgrass) | Lambsquarters plant response rating (lambsquarters; [11])
0: Johnsongrass plant response rating (johnsongrass [3]; [10]) | Nutsedge, Yellow plant response rating (yellow nutsedge [4]; [10]) | Plant response rating (0 to 100), Johnsongrass (johnsongrass [6]; postemergence) | Johnsongrass plant response rating (johnsongrass [6]; postemergence, visual rating) | Plant response rating, Johnsongrass (johnsongrass [6]; Postemergence, 62 g ai/ha)
15: Plant response rating, Foxtail, Giant (giant foxtail [5]; [13])
65: Nutsedge, Yellow plant response rating (yellow nutsedge [4]; [12]) | Soybean plant response rating (soybean; postemergence, visual rating) | Plant response rating, Soybean (soybean; Postemergence, 62 g ai/ha) | Plant response rating, Waterhemp (waterhemp; Postemergence, 62 g ai/ha)
70: Plant response rating, Foxtail, Giant (giant foxtail [2]) | Lambsquarters plant response rating (lambsquarters; [10]) | Plant response rating, Waterhemp (waterhemp; [13])
10: Foxtail, Giant plant response rating (giant foxtail [5]; postemergence, visual rating) | Nutsedge, Yellow plant response rating (yellow nutsedge [7]; postemergence, visual rating) | Plant response rating, Nutsedge, Yellow (yellow nutsedge [7]; [13]) | Plant response rating, Nutsedge, Yellow (yellow nutsedge [7]; Postemergence, 62 g ai/ha) | Plant response rating, Chickweed (chickweed; Postemergence, 62 g ai/ha)
95: Galium plant response rating (galium; [11]) | Galium plant response rating (galium; [12]) | Plant response rating, Galium (galium)
85: Foxtail, Giant plant response rating (giant foxtail [2]; [11]) | Johnsongrass plant response rating (johnsongrass [3]; [12])
100: Foxtail, Giant plant response rating (giant foxtail [1]; [14]) | Crabgrass, Large plant response rating (large (Lg) crabgrass; [11]) | Crabgrass, Large plant response rating (large (Lg) crabgrass; [12]) | Foxtail, Giant plant response rating (giant foxtail [2]; [12]) | Lambsquarters plant response rating (lambsquarters; [12])
75: Crabgrass, Large plant response rating (large (Lg) crabgrass; [10]) | Plant response rating, Soybean (soybean; [13])
